In ChEMBL document CHEMBL4673296 (J Med Chem, 2020):
Calls of active or inactive are those of the source. The rule behind the calls is not given here.

test system: not listed separately; assay: Apparent permeability of the compound across apical side to basolateral side in human Caco2 cells; format: ADME, cell-based; settings: Caco-2

| Structure (SMILES) | Papp A→B |
| --- | --- |
| FC(F)(F)c1cnc(Nc2ccc3nc[nH]c3c2)nc1NC1CC1 | > 10 ×10⁻⁶ cm/s |
| FC(F)(F)c1cnc(Nc2ccc3ncccc3c2)nc1NC1CC1 | > 10 ×10⁻⁶ cm/s |
| Nc1ccc(Nc2ncc(C(F)(F)F)c(NC3CC3)n2)cc1 | > 10 ×10⁻⁶ cm/s |
| COc1cncc(Nc2ncc(C(F)(F)F)c(NC3CC3)n2)c1 | > 10 ×10⁻⁶ cm/s |
| Oc1ccccc1Nc1ncc(C(F)(F)F)c(NC2CC2)n1 | > 10 ×10⁻⁶ cm/s |
| FC(F)(F)c1cnc(Nc2ccc3ncoc3c2)nc1NC1CC1 | > 10 ×10⁻⁶ cm/s |
| FC(F)(F)c1cnc(Nc2ccc3c(c2)OCCCO3)nc1NC1CC1 | > 10 ×10⁻⁶ cm/s |

test system: MDA-MB-468; assay: cells; settings: Homo sapiens, MDA-MB-468, 72 h
Description: Cytotoxicity against human MDA-MB-468 cells measured after 72 hrs by Celltiter-Glo assay

| Structure (SMILES) | IC50 |
| --- | --- |
| NC(=O)c1cccc2cn(-c3ccc([C@@H]4CCCNC4)cc3)nc12 [NIRAPARIB] | 7.6 µM |

test system: MDA-MB-468; assay: Reduction in autophagosome accumulation in human MDA-MB-468 cells at 10 uM by transmission electron microscopic analysis; format: functional, cell-based; settings: not given

| Structure (SMILES) | inhibition |
| --- | --- |
| CNC(=O)c1ccccc1Oc1nc(Nc2cc(OC)c(OC)c(OC)c2)ncc1Br | Active |

molecular target: T1, Serine/threonine-protein kinase ULK1 (Homo sapiens) (UniProt O75385); assay: Inhibition of Myc-tagged ULK1 (unknown origin) expressed in HEK293T cells cotransfected with wild-type Flag tagged Beclin-1 assessed as decrease in pBeclin1 Ser15 at 10 uM measured after 1 hr by Western blot analysis; format: cell-based; settings: not given
T1 sequence (whole entry): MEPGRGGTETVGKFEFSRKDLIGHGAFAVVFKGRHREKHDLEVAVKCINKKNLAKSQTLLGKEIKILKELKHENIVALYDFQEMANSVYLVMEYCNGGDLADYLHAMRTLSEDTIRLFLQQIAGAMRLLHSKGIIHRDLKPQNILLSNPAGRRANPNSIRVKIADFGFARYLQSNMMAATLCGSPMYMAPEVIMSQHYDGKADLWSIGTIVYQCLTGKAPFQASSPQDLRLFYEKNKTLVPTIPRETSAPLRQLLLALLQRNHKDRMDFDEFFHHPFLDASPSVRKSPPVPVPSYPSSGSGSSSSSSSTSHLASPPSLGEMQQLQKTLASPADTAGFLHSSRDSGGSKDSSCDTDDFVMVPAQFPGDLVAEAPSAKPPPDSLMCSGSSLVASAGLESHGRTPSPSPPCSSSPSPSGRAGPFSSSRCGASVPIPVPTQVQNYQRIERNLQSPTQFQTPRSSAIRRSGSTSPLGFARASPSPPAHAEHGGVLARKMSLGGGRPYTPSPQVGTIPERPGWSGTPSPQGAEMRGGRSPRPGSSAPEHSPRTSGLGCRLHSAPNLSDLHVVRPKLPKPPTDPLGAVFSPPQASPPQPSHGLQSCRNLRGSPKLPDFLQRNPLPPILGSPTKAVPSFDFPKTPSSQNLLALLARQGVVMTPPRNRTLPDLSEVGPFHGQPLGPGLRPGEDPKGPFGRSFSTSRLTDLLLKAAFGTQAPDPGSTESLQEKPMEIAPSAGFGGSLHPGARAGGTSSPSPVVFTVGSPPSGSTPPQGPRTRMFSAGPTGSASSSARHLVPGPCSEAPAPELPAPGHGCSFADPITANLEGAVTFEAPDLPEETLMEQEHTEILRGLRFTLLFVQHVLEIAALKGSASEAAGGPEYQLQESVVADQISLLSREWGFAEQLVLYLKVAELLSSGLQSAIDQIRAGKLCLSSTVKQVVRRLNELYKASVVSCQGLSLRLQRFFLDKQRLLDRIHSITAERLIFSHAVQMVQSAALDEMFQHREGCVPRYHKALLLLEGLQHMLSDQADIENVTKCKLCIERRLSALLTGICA

| Structure (SMILES) | inhibition |
| --- | --- |
| FC(F)(F)c1cnc(Nc2ccc3nc[nH]c3c2)nc1NC1CC1 | Active |
| FC(F)(F)c1cnc(Nc2ccc3ncccc3c2)nc1NC1CC1 | Active |
| Nc1ccc(Nc2ncc(C(F)(F)F)c(NC3CC3)n2)cc1 | Active |
| COc1cncc(Nc2ncc(C(F)(F)F)c(NC3CC3)n2)c1 | Active |
| FC(F)(F)c1cnc(Nc2ccc3ncoc3c2)nc1NC1CC1 | Active |

molecular target: T2, Serine/threonine-protein kinase ULK1 (Homo sapiens, UniProt O75385); assay: Inhibition of recombinant human ULK1 (1-649) expressed in Sf9 cells using myelin basic protein as substrate by ADP-glo assay; settings: not given
T2 sequence (O75385 whole entry): T1 sequence (whole entry)

| Structure (SMILES) | IC50 |
| --- | --- |
| FC(F)(F)c1cnc(Nc2ccc3c(c2)OCCO3)nc1NC1CC1 | 0.014 µM |
| O=C(Nc1ccc(Nc2ncc(C(F)(F)F)c(NC3CC3)n2)cc1)C1CC1 | 0.013 µM |
| Nc1nc(Nc2ccc3c(c2)OCO3)ncc1C(F)(F)F | 0.23 µM |
| FC(F)(F)c1cnc(Nc2ccc3ncccc3c2)nc1NC1CC1 | 0.005 µM |
| Nc1ccc(Nc2ncc(C(F)(F)F)c(NC3CC3)n2)cc1 | 0.02 µM |
| FC(F)(F)c1cnc(Nc2ccc3ncoc3c2)nc1NC1CC1 | 0.019 µM |
| FC(F)(F)c1cnc(Nc2ccc3c(c2)OCCCO3)nc1NC1CC1 | 0.007 µM |

test system: not listed separately; assay: Efflux ratio of apparent permeability from basolateral side to apical side over apical side to basolateral side in human Caco2 cells; format: ADME, cell-based; settings: Caco-2

| Structure (SMILES) | efflux ratio |
| --- | --- |
| FC(F)(F)c1cnc(Nc2ccc3ncccc3c2)nc1NC1CC1 | < 2 |
| Nc1ccc(Nc2ncc(C(F)(F)F)c(NC3CC3)n2)cc1 | < 2 |
| FC(F)(F)c1cnc(Nc2ccc3ncoc3c2)nc1NC1CC1 | < 2 |
| FC(F)(F)c1cnc(Nc2ccc3c(c2)OCCCO3)nc1NC1CC1 | < 2 |

molecular target: T1, Serine/threonine-protein kinase ULK1 (Homo sapiens); assay: Inhibition of Myc-tagged ULK1 (unknown origin) expressed in HEK293T cells cotransfected with wild-type Flag tagged Vps34 assessed as decrease in pVPS34 Ser249 at 10 uM measured after 1 hr by Western blot analysis relative to control; format: cell-based; settings: not given

| Structure (SMILES) | inhibition |
| --- | --- |
| FC(F)(F)c1cnc(Nc2ccc3nc[nH]c3c2)nc1NC1CC1 | 70% |
| FC(F)(F)c1cnc(Nc2ccc3ncccc3c2)nc1NC1CC1 | 70% |
| Nc1ccc(Nc2ncc(C(F)(F)F)c(NC3CC3)n2)cc1 | 70% |
| COc1cncc(Nc2ncc(C(F)(F)F)c(NC3CC3)n2)c1 | 70% |
| FC(F)(F)c1cnc(Nc2ccc3ncoc3c2)nc1NC1CC1 | 70% |

test system: not listed separately; assay: Apparent permeability of the compound across basolateral side to apical side in human Caco2 cells; format: ADME, cell-based; settings: Caco-2

| Structure (SMILES) | Papp B→A |
| --- | --- |
| FC(F)(F)c1cnc(Nc2ccc3nc[nH]c3c2)nc1NC1CC1 | > 10 ×10⁻⁶ cm/s |
| FC(F)(F)c1cnc(Nc2ccc3ncccc3c2)nc1NC1CC1 | > 10 ×10⁻⁶ cm/s |
| Nc1ccc(Nc2ncc(C(F)(F)F)c(NC3CC3)n2)cc1 | > 10 ×10⁻⁶ cm/s |
| COc1cncc(Nc2ncc(C(F)(F)F)c(NC3CC3)n2)c1 | > 10 ×10⁻⁶ cm/s |
| Oc1ccccc1Nc1ncc(C(F)(F)F)c(NC2CC2)n1 | > 10 ×10⁻⁶ cm/s |
| FC(F)(F)c1cnc(Nc2ccc3ncoc3c2)nc1NC1CC1 | > 10 ×10⁻⁶ cm/s |
| FC(F)(F)c1cnc(Nc2ccc3c(c2)OCCCO3)nc1NC1CC1 | > 10 ×10⁻⁶ cm/s |

test system: not listed separately; assay: Inhibition of starvation-induced autophagic flux in human MDA-MB-468 cells expressing tandem-labelled mCherryEGFP-LC3 chimeric protein at 10 uM measured after 18 hrs in EBSS media by flow cytometry (Rvb >90%); format: functional; settings: not given

| Structure (SMILES) | inhibition at 10 µM |
| --- | --- |
| CNC(=O)c1ccccc1Oc1nc(Nc2cc(OC)c(OC)c(OC)c2)ncc1Br | 10% |

molecular target: T2, Serine/threonine-protein kinase ULK1; assay: Inhibition of ULK1 (unknown origin) expressed in HEK293T cells incubated for 2 hrs by NanoBRET assay; format: cell-based; settings: not given

| Structure (SMILES) | IC50 |
| --- | --- |
| FC(F)(F)c1cnc(Nc2ccc3c(c2)OCCO3)nc1NC1CC1 | 4.48 µM |
| O=C(Nc1ccc(Nc2ncc(C(F)(F)F)c(NC3CC3)n2)cc1)C1CC1 | 1.33 µM |
| Nc1nc(Nc2ccc3c(c2)OCO3)ncc1C(F)(F)F | > 10 µM |
| FC(F)(F)c1cnc(Nc2ccc3ncccc3c2)nc1NC1CC1 | 0.739 µM |
| Nc1ccc(Nc2ncc(C(F)(F)F)c(NC3CC3)n2)cc1 | 0.679 µM |
| FC(F)(F)c1cnc(Nc2ccc3ncoc3c2)nc1NC1CC1 | 1.02 µM |
| FC(F)(F)c1cnc(Nc2ccc3c(c2)OCCCO3)nc1NC1CC1 | 1.6 µM |

molecular target: T3, Serine/threonine-protein kinase ULK2 (Homo sapiens, UniProt Q8IYT8); assay: Inhibition of ULK2 (unknown origin) expressed in HEK293T cells incubated for 2 hrs by NanoBRET assay; format: cell-based; settings: not given
T3 sequence (Q8IYT8 whole entry): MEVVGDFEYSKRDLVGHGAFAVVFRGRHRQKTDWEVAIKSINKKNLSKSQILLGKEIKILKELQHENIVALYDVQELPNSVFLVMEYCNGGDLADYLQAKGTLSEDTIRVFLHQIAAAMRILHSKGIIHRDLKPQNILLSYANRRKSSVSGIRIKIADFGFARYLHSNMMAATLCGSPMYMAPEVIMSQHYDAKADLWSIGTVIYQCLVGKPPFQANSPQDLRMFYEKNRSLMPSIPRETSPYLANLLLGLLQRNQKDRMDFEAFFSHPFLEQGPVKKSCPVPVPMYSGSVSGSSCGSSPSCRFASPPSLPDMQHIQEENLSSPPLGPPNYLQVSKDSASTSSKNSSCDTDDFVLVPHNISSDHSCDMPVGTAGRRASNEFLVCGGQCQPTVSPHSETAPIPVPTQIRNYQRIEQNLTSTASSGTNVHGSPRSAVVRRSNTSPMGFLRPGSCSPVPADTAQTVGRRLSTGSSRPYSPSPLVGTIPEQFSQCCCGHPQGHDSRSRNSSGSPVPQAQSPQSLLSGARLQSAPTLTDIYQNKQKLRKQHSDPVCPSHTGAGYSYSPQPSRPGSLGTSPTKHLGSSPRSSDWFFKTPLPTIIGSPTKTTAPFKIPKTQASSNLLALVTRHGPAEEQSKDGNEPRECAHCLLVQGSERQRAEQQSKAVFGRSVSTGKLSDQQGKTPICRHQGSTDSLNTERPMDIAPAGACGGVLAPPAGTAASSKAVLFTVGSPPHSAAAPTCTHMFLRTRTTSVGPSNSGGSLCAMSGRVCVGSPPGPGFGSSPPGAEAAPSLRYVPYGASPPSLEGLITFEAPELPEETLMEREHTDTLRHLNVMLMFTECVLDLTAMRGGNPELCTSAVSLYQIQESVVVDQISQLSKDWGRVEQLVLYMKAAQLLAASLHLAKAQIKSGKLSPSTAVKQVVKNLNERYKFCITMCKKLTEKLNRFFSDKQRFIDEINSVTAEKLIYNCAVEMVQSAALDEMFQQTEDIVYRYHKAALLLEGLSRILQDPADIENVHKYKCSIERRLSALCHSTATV

| Structure (SMILES) | IC50 |
| --- | --- |
| FC(F)(F)c1cnc(Nc2ccc3nc[nH]c3c2)nc1NC1CC1 | 0.703 µM |
| FC(F)(F)c1cnc(Nc2ccc3ncccc3c2)nc1NC1CC1 | 1.65 µM |
| Nc1ccc(Nc2ncc(C(F)(F)F)c(NC3CC3)n2)cc1 | 1.69 µM |
| CNC(=O)c1ccccc1Oc1nc(Nc2cc(OC)c(OC)c(OC)c2)ncc1Br | 4.58 µM |
| COc1cncc(Nc2ncc(C(F)(F)F)c(NC3CC3)n2)c1 | 1.89 µM |
| FC(F)(F)c1cnc(Nc2ccc3ncoc3c2)nc1NC1CC1 | 4.26 µM |

molecular target: T3, Serine/threonine-protein kinase ULK2; assay: Inhibition of recombinant human ULK2 (1 to 478 residues) expressed in Sf9 cells using myelin basic protein as substrate by ADP-glo assay; settings: not given

| Structure (SMILES) | IC50 |
| --- | --- |
| FC(F)(F)c1cnc(Nc2ccc3nc[nH]c3c2)nc1NC1CC1 | 0.72 µM |
| FC(F)(F)c1cnc(Nc2ccc3ncccc3c2)nc1NC1CC1 | 0.714 µM |
| Nc1ccc(Nc2ncc(C(F)(F)F)c(NC3CC3)n2)cc1 | 1.33 µM |
| CNC(=O)c1ccccc1Oc1nc(Nc2cc(OC)c(OC)c(OC)c2)ncc1Br | 2.45 µM |
| COc1cncc(Nc2ncc(C(F)(F)F)c(NC3CC3)n2)c1 | 0.695 µM |
| FC(F)(F)c1cnc(Nc2ccc3ncoc3c2)nc1NC1CC1 | 1.19 µM |
